Patent US7544668B2, “Saponins derived from Ilex pubescens and method of purifying the same” (priority 2006, dated 2009)

Legend:
[1] = tested on: histamine-induced paw edema; assay: histamine induced paw edema in rats; type: in vivo, SD rats; conditions: 10 mg/kg oral
Protocol: Animal Material. Male and female ICR mice weighing 18-24 g and male SD rats weighing 150-210 g were purchased from the Laboratory Animal Services Center, the Chinese University of Hong Kong, Hong Kong. The animals were acclimated for more than 1 week under 12 hours light and 12 hours dark cycle at room temperature of 22±1° C. Chow diet and water were provided ad libitum. Animal care and treatment procedures conformed to the Institutional Guidelines and Animal Ordinance (Department of Health, Hong Kong Special Administrative Region.) Mice and rats were fasted for 16 hours and 48 hours, respectively, before experiment. Mode of Administration. The PSF solutions for anti-inflammatory and analgesic experiments were prepared by dissolving the product in 30% propanediol solution (for i.p. injection) and 0.5% (w/v) carboxymethylcellulose sodium salt (CMC—Na) (for orally administration), respectively. The reference drug indomethacin for anti-inflammatory test was dissolved in a vehicle that consisted of 10% peanut oil, 10% Tween-80 and 80% distilled water. Rotundine was suspended in 0.5% (w/v) CMC—Na salt and used as reference drug for anti-nociceptive experiment. The volumes (ml) of both hind paws were measured using a plethysmometer (Plethysmometer 7150, UGO Basile, Italy) at 1 hour before the induction and 1, 2, 3, 4, 6, and 8 hours after the induction. The increased volumes (paw edema) of the right hind paws of rats were calculated by the following equation: the increased rate (%)=(B−A)/A×100, where A and B represent the paw volumes before and at different time points after the induction, respectively. The acute inflammation in the hind paws was induced by the subcutaneous injection of 0.05 ml 1% prepared solutions of histamine into right hind paws of rats. The left hind paws were used as controls. Administration of PSF (12.5 mg/kg, 25 mg/kg, 50 mg/kg, 100 mg/kg body weight, i.p. injection), or of the vehicle (30% propanediol) was performed at 10 minutes prior to carrageenan injection. Indomethacin was orally administrated at 1 hour before the induction. The volumes of the injected and control paws were measured at different time points designed from 0.5 to 4 hours after injection of histamine. The increased rates in paw volume were calculated in the same way as in carrageenan.

[2] = tested on: carrageenan-induced paw edema; assay: carrageenan induced paw edema in rats; type: in vivo, SD rats; conditions: 10 mg/kg oral
Protocol: Animal Material. Male and female ICR mice weighing 18-24 g and male SD rats weighing 150-210 g were purchased from the Laboratory Animal Services Center, the Chinese University of Hong Kong, Hong Kong. The animals were acclimated for more than 1 week under 12 hours light and 12 hours dark cycle at room temperature of 22±1° C. Chow diet and water were provided ad libitum. Animal care and treatment procedures conformed to the Institutional Guidelines and Animal Ordinance (Department of Health, Hong Kong Special Administrative Region.) Mice and rats were fasted for 16 hours and 48 hours, respectively, before experiment. Mode of Administration. The PSF solutions for anti-inflammatory and analgesic experiments were prepared by dissolving the product in 30% propanediol solution (for i.p. injection) and 0.5% (w/v) carboxymethylcellulose sodium salt (CMC—Na) (for orally administration), respectively. The reference drug indomethacin for anti-inflammatory test was dissolved in a vehicle that consisted of 10% peanut oil, 10% Tween-80 and 80% distilled water. Rotundine was suspended in 0.5% (w/v) CMC—Na salt and used as reference drug for anti-nociceptive experiment. The experiment was conducted as previously described by Winter^1. At the induction, each rat was injected with 0.1 ml freshly prepared carrageenan (1% w/v) in physiological saline (0.9% w/v NaCl) into subplantar tissues of the right hind paw. The left hind paws without injection were used as controls. PSF was i.p. administrated 10 minutes prior to carrageenan injection. Control animals received an appropriate volume of 30% propanediol. Indomethacin was orally administrated 1 hr before the carrageenan injection as a reference drug. The volumes (ml) of both hind paws were measured using a plethysmometer (Plethysmometer 7150, UGO Basile, Italy) at 1 hour before the induction and 1, 2, 3, 4, 6, and 8 hours after the induction. The increased volumes (paw edema) of the right hind paws of rats were calculated by the following equation: the increased rate (%)=(B−A)/A×100, where A and B represent the paw volumes before and at different time points after the induction, respectively.

[3] = tested on: radiant heat stimulation-induced tail flick reaction; assay: tail flick test, radiant heat stimulation in mice; type: in vivo, ICR mice; conditions: for Tail flick reaction time: 50 mg/kg oral
Protocol: Animal Material. Male and female ICR mice weighing 18-24 g and male SD rats weighing 150-210 g were purchased from the Laboratory Animal Services Center, the Chinese University of Hong Kong, Hong Kong. The animals were acclimated for more than 1 week under 12 hours light and 12 hours dark cycle at room temperature of 22±1° C. Chow diet and water were provided ad libitum. Animal care and treatment procedures conformed to the Institutional Guidelines and Animal Ordinance (Department of Health, Hong Kong Special Administrative Region.) Mice and rats were fasted for 16 hours and 48 hours, respectively, before experiment.
Mode of Administration. The PSF solutions for anti-inflammatory and analgesic experiments were prepared by dissolving the product in 30% propanediol solution (for i.p. injection) and 0.5% (w/v) carboxymethylcellulose sodium salt (CMC—Na) (for orally administration), respectively. The reference drug indomethacin for anti-inflammatory test was dissolved in a vehicle that consisted of 10% peanut oil, 10% Tween-80 and 80% distilled water. Rotundine was suspended in 0.5% (w/v) CMC—Na salt and used as reference drug for anti-nociceptive experiment.
The anti-nociceptive effects of PSF and the reference drug, expressed as the time required for mice tail flick after exposure to a source of radiant heat, were evaluated according to the description of d'Amour^3. […] The tail-flick response was elicited by applying radiant heat to the point ⅓ of length away from the tip of the tail. The apparatus was arranged so that when the operator turned on the lamp a timer was activated. When the mice felt pain and flicked its tail, light fell on the photocell such that the timer was automatically stopped. The intensity of the heat stimulus in the tail-flick test was adjusted so that the animal flicked its tail within 3 to 6 seconds. A 12 seconds cut-off time was set in order to prevent tail tissues from damage. Before the experiment, the heat stimulation latency of all animals was tested, and those with response time to heat stimulation from […] were excluded. The tail-flick response was measured at 0.5, 1, and 2 hours after oral administration of PSF (200, 100 and 50 mg/kg body weight) or rotundine (50 mg/kg, as reference drug) or vehicle.

[4] = tested on: acetic acid induced writhing response; assay: abdominal writhing test induced by acetic acid in mice; type: in vivo, ICR mice
Protocol: Animal Material. Male and female ICR mice weighing 18-24 g and male SD rats weighing 150-210 g were purchased from the Laboratory Animal Services Center, the Chinese University of Hong Kong, Hong Kong. The animals were acclimated for more than 1 week under 12 hours light and 12 hours dark cycle at room temperature of 22±1° C. Chow diet and water were provided ad libitum. Animal care and treatment procedures conformed to the Institutional Guidelines and Animal Ordinance (Department of Health, Hong Kong Special Administrative Region.) Mice and rats were fasted for 16 hours and 48 hours, respectively, before experiment. Mode of Administration. The PSF solutions for anti-inflammatory and analgesic experiments were prepared by dissolving the product in 30% propanediol solution (for i.p. injection) and 0.5% (w/v) carboxymethylcellulose sodium salt (CMC—Na) (for orally administration), respectively. The reference drug indomethacin for anti-inflammatory test was dissolved in a vehicle that consisted of 10% peanut oil, 10% Tween-80 and 80% distilled water. Rotundine was suspended in 0.5% (w/v) CMC—Na salt and used as reference drug for anti-nociceptive experiment. The abdominal writhing test induced by chemical stimulation of acetic acid was performed in mice as originally described by Siegmund^2. […] Rotundine was orally administrated 1 hour before acetic acid injection. After intraperitoneal injection of 0.2 ml acetic acid (0.8% w/v) in physiological saline (0.9% w/v NaCl), animals were isolated for observation. The numbers of abdominal writhing syndrome/events, which consisted of the contraction of the abdominal area with extension of hind legs, were recorded during a 15 minutes period in each animal.

[5] = oral, in comparison with vehicle-treated animals

Q: What does the source list for `COc1ccc2c(c1)c(CC(=O)O)c(C)n2C(=O)c1ccc(Cl)cc1` [Indomethacin]?
A: Change in paw swelling after histamine injection (%) ([1]; 0.5 h after histamine): 29.72 ± 10.67%; Change in paw swelling after histamine injection (%) ([1]; 1 h after histamine): 14.64 ± 9.21 %; Change in paw swelling after histamine injection (%) ([1]; 2 h after histamine): 11.51 ± 6.61 %; Change in paw swelling after histamine injection (%) ([1]; 3 h after histamine): 11.35 ± 7.35%; Change in paw swelling after histamine injection (%) ([1]; 4 h after histamine): 7.43 ± 6.05 %; Change in paw swelling after histamine injection (%) ([1]; 6 h after histamine): 4.17 ± 6.05%; effect on histamine-induced edema ([1]; at a later time than PSF): significant inhibitory effect; Changes in swelling percentage after carrageenan injection (%) ([2]; 1 h after carrageenan): 8.54 ± 4.97 %; Changes in swelling percentage after carrageenan injection (%) ([2]; 2 h after carrageenan): 10.80 ± 7.77 %; Changes in swelling percentage after carrageenan injection (%) ([2]; 3 h after carrageenan): 9.49 ± 6.63 %; Changes in swelling percentage after carrageenan injection (%) ([2]; 4 h after carrageenan): 13.53 ± 10.13 %; Changes in swelling percentage after carrageenan injection (%) ([2]; 6 h after carrageenan): 17.43 ± 9.21 %; Changes in swelling percentage after carrageenan injection (%) ([2]; 8 h after carrageenan): 34.70 ± 9.21%

Q: How did the “Tail flick reaction time” value ([3]; 0.5 h after administration) turn out when `COc1cc2c(cc1OC)[C@@H]1Cc3ccc(OC)c(OC)c3CN1CC2` [Rotundine] was run?
A: Its value is 7.552 ± 3.301 s.

Q: And the “Tail flick reaction time” value ([3]; 1 h after administration)?
A: The value was 11.044 ± 1.658 s.

Q: And the “Tail flick reaction time” value ([3]; 2 h after administration)?
A: The value was 9.813 ± 3.069 s.

Q: What about the “Tail flick reaction time” value ([3]; time 0) of the same molecule?
A: The value was 4.223 ± 0.458 s.

Q: And the “effect on tail flick reaction time of mice” value [3, 5]?
A: The value was “prolonged the reaction time”.

Q: And the “Inhibition (%)” value ([4]; 50 mg/kg oral 1 hour before acetic acid)?
A: Its value is 100%.

Q: And the Writhing count ([4]; 50 mg/kg oral 1 hour before acetic acid, 15 minutes period)?
A: Its Writhing count is 0.00 ± 0.00.

Q: And the “effect on number of writhing episodes of mice” value [4, 5]?
A: The value was “complete analgesia”.
